Consider 19 compounds from PubChem BioAssay (NCI).

Several values for one entry are separate records, joined by “and”; a condition that tells them apart may be missing. Equal entries are not always repeated.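 How tested: cells in 96-well plates exposed to compound for 48 hours at five concentrations. Here, GI50 denotes the concentration required for 50% inhibition of growth. TGI: concentration producing complete growth inhibition.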

Holding throughout (assay): NCI tumour cell line growth inhibition, 48 h
The subject of assay [1] is KM20L2 colon.
For assay [2], the system named is DLD-1 colon.
Assay [3] relates to SK-MEL-2 melanoma.
Assay [4] has as its system DMS 114 small cell lung.
The test system of assay [5] is SNB-78 CNS.
Assay [6] concerns K-562 leukemia.
In assay [7] the test system is XF 498 CNS.
For assay [8], the system named is T-47D breast.
For assay [9], the system named is MDA-MB-435.
Assay [10] concerns NCI/ADR-RES ovarian.

Consider `Cc1cccc(C(C)(C)C)c1NC(=O)C(=O)Cc1nc2ccccc2s1`, for which the TGI in assay [1], in assay [2], in [3], in assay [4], in [5] and in assay [6] was over 100 µM in each case.
On to `C#CC(C)(C)Oc1cc(O)c2c(=O)c3ccccc3n(C)c2c1`, for which the TGI in assay [1], in [3], in assay [4], in assay [5], in assay [6] and in assay [7] was over 100 µM each time.
Turning to `O=C(/C=C(\[O-])c1ccccc1)CCCCCCC(=O)/C=C(\[O-])c1ccccc1.O=C(/C=C(\[O-])c1ccccc1)CCCCCCC(=O)/C=C(\[O-])c1ccccc1.O=C(/C=C(\[O-])c1ccccc1)CCCCCCC(=O)/C=C(\[O-])c1ccccc1.[La+3].[La+3]`, the GI50 in assay [1], in [3] and in [6] was over 50 µM each time. For the same compound, the TGI in assay [1], in assay [3] and in assay [6] was over 50 µM throughout.
Turning to `C[Si](C)(C)c1ccc(CC2(Cc3ccc([Si](C)(C)C)cc3)CCNC2)cc1`, the TGI in assay [1] is 3.93 µM; in assay [2], 6.87 µM; in assay [3], 3.41 µM; in assay [4] it was 3.87 µM; in assay [5], 8.87 µM; in assay [6], 84.6 µM.
Consider `CCOC(=O)CCCO`, for which the TGI in assay [1], in assay [2], in assay [3], in [6] and in assay [7] was over 100 µM in each case.
For `O=S(=O)(O)C(O)/C=C/c1ccccc1` (centres undefined), the TGI in [1], in [2], in assay [3], in assay [4] and in assay [6] was over 100 µM in each case.
As for `CN(C)c1ccc(/C=C2\C[N+](C)(C)C/C(=C\c3ccc(N(C)C)cc3)C2=O)cc1`, the TGI in [1] is 27.7 µM; in assay [2] it was over 100 µM; in [3], 36.1 µM; in [4], 26.1 µM; in assay [5] it was over 95.8 µM; in [6] it was 31.3 µM. Also, the TGI in assay [8] amounted to 46.6 µM; in assay [9] it was 30 µM.
As to `NC1(CCCCCCCCCCC(=O)O)CNCCNCCNCCNC1`, the TGI in assay [1], in [2], in assay [3], in [4] and in assay [6] was over 100 µM each time.
Consider `O=C(O)c1cc(S(=O)(=O)N=NC=C2c3ccccc3N(O)c3ccccc32)ccc1O`, for which the TGI is 63.6 µM in assay [1]; 64.6 µM in [2]; 64.2 µM in assay [3]; 50.8 µM in assay [4]; 96.5 µM in assay [5]; over 100 µM in assay [6].
For `O=C(O)CCCc1ccc(N(CCCl)CCCl)cc1`, the GI50 in [1] is 27.8 µM; in assay [2], 24.3 µM; in assay [3], 31.8 µM and 270 µM; in assay [4], 7.84 µM; in assay [6], 21.7 µM and 152 µM; in [8], 27.3 µM. Moreover, the GI50 in assay [9] was 173 µM; in [7], 12.1 µM; in [10], 39.4 µM. Besides, the TGI is 60.9 µM and 379 µM in [1]; 54.8 µM and 280 µM in [2]; 52 µM and 314 µM and 344 µM in assay [3]; 32.4 µM and 179 µM in assay [4]; 88.5 µM and 462 µM and 625 µM in [6]; 333 µM and 292 µM in [8]. The TGI in assay [9] was 270 µM and 242 µM; in assay [7], 31.9 µM and 158 µM; in [10], 329 µM and 118 µM.
`COc1cc2c(cc1O)[C@H](Cc1ccc(Oc3cc(C[C@H]4c5cc(OC)c(OC)cc5CCN4C)ccc3OC)cc1)NCC2`: the TGI was 22.7 µM in assay [1]; 32.1 µM in assay [3]; 40.5 µM in [4]; 19.1 µM in [6]; 24 µM in [7].
In the case of `CN(C)CCNC(=O)c1cccc2nc3c(Cl)cccc3nc12`, the TGI in [1] worked out at 32.2 µM; in assay [2], 42.2 µM; in assay [3] it was 18.6 µM; in assay [4] it was 12.1 µM; in [6], 8.74 µM; in assay [7], 11.7 µM.
For `CC(C)(C)C1=NC(S)NC(CCC(=O)Nc2ccccc2[N+](=O)[O-])=C1` (centres undefined), the TGI in assay [1], in assay [2], in assay [3], in assay [4], in [5] and in assay [6] was over 100 µM in each case.
In the case of `COC(=O)c1c(OC)cccc1C(=O)O`, the TGI in assay [1], in assay [3], in assay [4], in [5] and in [6] was over 100 µM in each case.
Turning to `CCCCCCCCCCCCCCC1OC(=O)c2ccccc21` (centres undefined), the TGI in assay [1] was over 100 µM; in [2] it was over 100 µM; in assay [4], 90.4 µM; in assay [5], over 100 µM; in [6], over 100 µM.
On to `Cc1c(C(=O)/C=C/c2cccc3ccccc23)[n+](=O)c2ccccc2n1[O-]`, for which the TGI in assay [1] was determined as 27.9 µM; in assay [2], 23.3 µM; in [4], 16.8 µM; in assay [5], 47.8 µM; in assay [6] it was 36.5 µM.
On to `N#Cc1cnn2ccn(C3OC(COC(=O)c4ccccc4)C(OC(=O)c4ccccc4)C3OC(=O)c3ccccc3)c12` (centres undefined), for which the TGI in assay [3] is 0.843 µM; in assay [6], over 21.5 µM; in assay [8], 21.5 µM; in [9], over 21.5 µM; in [10], over 21.5 µM.
`CN(C)c1ccc2c(c1)oc(=O)c1ccccc12`: the TGI in assay [3] was found to be 23.2 µM; in assay [6], 26.9 µM; in assay [8] it was 28.4 µM; in [9], 23.1 µM; in [10], 44.9 µM.
For the compound `O=C(N/N=C/c1cccc(O)c1O)N/N=C/c1cccc(O)c1O`, the TGI in [1] was 95.2 µM; in [3], over 100 µM; in assay [4] it was over 100 µM; in assay [5], over 100 µM; in assay [6], over 100 µM; in assay [7] it was over 100 µM.
